Measurements: PubChem BioAssay (NCI)
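All cell lines were grown in 96-well plates and treated with compound for 48 hours. Here, GI50 denotes the concentration required for 50% inhibition of growth. TGI: total growth inhibition.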

Assays:
Test in all cases: DTP human tumour cell line panel, 48 h
[1] = system: MCF7 breast
[2] = system: SF-268 CNS
[3] = system: SNB-75 CNS
[4] = system: UACC-62 melanoma
[5] = system: DU-145 prostate
[6] = system: RPMI-8226 leukemia
[7] = system: HOP-62 NSCLC
[8] = system: IGROV1 ovarian
[9] = system: HCT-15 colon
[10] = system: SK-MEL-2 melanoma
[11] = system: NCI-H23 lung
[12] = system: OVCAR-8 ovarian
[13] = system: HOP-92 NSCLC
[14] = system: BT-549 breast
[15] = system: T-47D breast
[16] = system: HT29 colon
[17] = system: HS 578T breast
[18] = system: RXF 393 renal
[19] = system: HCC-2998 colon
[20] = system: SW-620 colon
[21] = system: UACC-257 melanoma
[22] = system: EKVX NSCLC
[23] = system: SF-295 CNS
[24] = system: CCRF-CEM leukemia
[25] = system: TK-10 renal
[26] = system: SK-OV-3 ovarian
[27] = system: OVCAR-3 ovarian
[28] = system: SN12C renal
[29] = system: MALME-3M melanoma
[30] = system: SR leukemia
[31] = system: OVCAR-5 ovarian
[32] = system: SK-MEL-5 melanoma
[33] = system: NCI-H460 lung
[34] = system: MDA-MB-435
[35] = system: M14 melanoma
[36] = system: PC-3 prostate
[37] = system: A498 renal
[38] = system: HL-60(TB) leukemia
[39] = system: COLO 205 colon
[40] = system: CAKI-1 renal
[41] = system: LOX IMVI melanoma
[42] = system: K-562 leukemia
[43] = system: KM12 colon
[44] = system: NCI-H226 lung
[45] = system: SF-539 CNS
[46] = system: A549 NSCLC
[47] = system: UO-31 renal
[48] = system: HCT-116 colon
[49] = system: OVCAR-4 ovarian
[50] = system: NCI-H522 lung
[51] = system: U251 CNS
[52] = system: SNB-19 CNS
[53] = system: NCI/ADR-RES ovarian
[54] = system: MDA-MB-231 breast
[55] = system: 786-0 renal
[56] = system: MOLT-4 leukemia
[57] = system: SK-MEL-28 melanoma
[58] = system: ACHN renal

`CCCn1cnc2c(c1=N)C(c1ccc(Cl)cc1)c1sc3c(CC)cccc3c1O2` (stereo not given) gave a GI50 [1] of 354 nM, a TGI [1] of 11700 nM and a GI50 [2] of 820 nM. The TGI [2] was 15200 nM, the GI50 [3] was 202 nM and the TGI [3] was 878 nM. For the same compound, the GI50 [4] was 515 nM, the TGI [4] was 14500 nM and the GI50 [5] was 615 nM. For the same compound, the TGI [5] was 11400 nM, the GI50 [6] was 471 nM and the TGI [6] was 7390 nM. For the same compound, the GI50 [7] was 563 nM, the TGI [7] was 8930 nM and the GI50 [8] was 607 nM. The TGI [8] was 11800 nM, the GI50 [9] was 497 nM and the TGI [9] was 10400 nM. For the same compound, the GI50 [10] was 925 nM, the TGI [10] was 16000 nM and the GI50 [11] was 974 nM. For the same compound, the TGI [11] was 11300 nM, the GI50 [12] was 1380 nM and the TGI [12] was 13400 nM. The GI50 [13] was 1250 nM, the TGI [13] was 12800 nM and the GI50 [14] was 1960 nM. It also gave a TGI [14] of 16700 nM, a GI50 [15] of 581 nM and a TGI [15] of 14900 nM. The GI50 [16] was 725 nM, the TGI [16] was 6130 nM and the GI50 [17] was 434 nM. The TGI [17] was 5640 nM, the GI50 [18] was 273 nM and the TGI [18] was 1310 nM. For the same compound, the GI50 [19] was 1750 nM, the TGI [19] was 7550 nM and the GI50 [20] was 422 nM. The TGI [20] was 12800 nM, the GI50 [21] was 12200 nM and the TGI [21] was 33700 nM. The GI50 [22] was 1120 nM, the TGI [22] was 16600 nM and the GI50 [23] was 385 nM. The TGI [23] was 3750 nM, the GI50 [24] was 370 nM and the GI50 [25] was 7620 nM. The TGI [25] was 23500 nM, the GI50 [26] was 670 nM and the TGI [26] was 20800 nM. The GI50 [27] was 347 nM, the TGI [27] was 1780 nM and the GI50 [28] was 1580 nM. For the same compound, the TGI [28] was 15000 nM, the GI50 [29] was 722 nM and the TGI [29] was 20300 nM. It also gave a GI50 [30] of 342 nM, a TGI [30] of 5010 nM and a GI50 [31] of 2130 nM. The TGI [31] was 13300 nM, the GI50 [32] was 683 nM and the TGI [32] was 11500 nM. For the same compound, the GI50 [33] was 392 nM, the TGI [33] was 10400 nM and the GI50 [34] was 250 nM. The TGI [34] was 1000 nM, the GI50 [35] was 588 nM and the TGI [35] was 9750 nM. For the same compound, the GI50 [36] was 564 nM, the TGI [36] was 14700 nM and the GI50 [37] was 359 nM. It also gave a TGI [37] of 1830 nM, a GI50 [38] of 307 nM and a TGI [38] of 1660 nM. The GI50 [39] was 971 nM, the TGI [39] was 3930 nM and the GI50 [40] was 361 nM. For the same compound, the TGI [40] was 15600 nM, the GI50 [41] was 706 nM and the TGI [41] was 10900 nM. For the same compound, the GI50 [42] was 328 nM, the TGI [42] was 6150 nM and the GI50 [43] was 448 nM. For the same compound, the TGI [43] was 13400 nM, the GI50 [44] was 936 nM and the TGI [44] was 10200 nM. For the same compound, the GI50 [45] was 410 nM, the TGI [45] was 1900 nM and the GI50 [46] was 824 nM. It also gave a TGI [46] of 14200 nM, a GI50 [47] of 712 nM and a TGI [47] of 18300 nM. For the same compound, the GI50 [48] was 446 nM, the TGI [48] was 10300 nM and the GI50 [49] was 1200 nM. The TGI [49] was 18200 nM, the GI50 [50] was 407 nM and the TGI [50] was 5530 nM. For the same compound, the GI50 [51] was 505 nM, the TGI [51] was 10900 nM and the GI50 [52] was 592 nM. It also gave a TGI [52] of 15400 nM, a GI50 [53] of 419 nM and a TGI [53] of 2750 nM. For the same compound, the GI50 [54] was 1950 nM, the TGI [54] was 13700 nM and the GI50 [55] was 555 nM. It also gave a TGI [55] of 12900 nM, a GI50 [56] of 644 nM and a TGI [56] of 9250 nM. It also gave a GI50 [57] of 2990 nM, a TGI [57] of 22400 nM and a GI50 [58] of 637 nM. It also gave a TGI [58] of 17000 nM.
